A word on the IC50: it is the midpoint of a concentration-inhibition curve. As usually defined, the Tmax is the time at which the peak concentration occurs. A word on the Cmax: it is the highest concentration seen after dosing. As usually defined, the AUC is concentration integrated over time.

The test system of series [1] is HepG2. Description: Inhibition of human recombinant BMP6-stimulated hepcidin mRNA expression in human HepG2 cells after 6 hrs by qRT-PCR analysis. Type of series: functional, cell-based. The conditions noted are these: HepG2, 6 h. A general note: Real-time PCR tracks product formation cycle by cycle.
A short description of series [2]: Tmax in C57BL/6J mouse at 30 mg/kg, po by LC-MS/MS analysis. It is filed as ADME, organism-based. The conditions noted are these: in vivo.
Series [3] is described as follows: Cmax in C57BL/6J mouse at 30 mg/kg, po by LC-MS/MS analysis. Type of series: ADME, organism-based. The arrangement: dose 30 mg/kg, route oral. The conditions noted are these: in vivo.
A short description of series [4]: AUC in C57BL/6J mouse at 30 mg/kg, po by LC-MS/MS analysis. Type of series: ADME, organism-based. The conditions noted are these: in vivo.
A short description of series [5]: Metabolic stability in mouse liver microsomes assessed as […] by measuring parent compound remaining at 1 uM after 0.5 hrs by LC-MS/MS analysis. It is filed as ADME. The conditions noted are these: read-out: Stability. Background: Microsomes from liver hold many membrane-bound enzymes, among them those of drug oxidation.

Structures are written as SMILES. Some results are limits rather than exact numbers.

Take `CCOC(=O)Nc1noc2cc(-c3c(-c4ccccn4)n[nH]c3C)ccc12`: in series [1], the IC50 came out at 40 nM. With `COC(=O)Nc1noc2cc(-c3c(-c4cccc(C)n4)n[nH]c3C)ccc12`, the IC50 in series [1] turned out to be 42 nM.

For the molecule `COC(=O)Nc1noc2cc(-c3c(-c4cnccn4)n[nH]c3C)ccc12`, the IC50 in series [1] came out at 210 nM. With `CNC(=O)c1n[nH]c(C)c1-c1ccc2c(NC(=O)OC)noc2c1`, the IC50 in series [1] turned out to be 4400 nM. Regarding `COC(=O)Nc1noc2cc(-c3c(C4CC4)n[nH]c3C)ccc12`, in series [1], the IC50 stood at 210 nM.

Regarding `COC(=O)Nc1noc2cc(-c3c(-c4ccccc4)n[nH]c3C)ccc12`, the IC50 in series [1] was 540 nM. Take `CCNC(=O)Nc1noc2cc(-c3c(C4CC4)n[nH]c3C)ccc12`: the IC50 in series [1] came to 720 nM.

In the case of `COC(=O)Nc1noc2cc(-c3c(C)n[nH]c3C)ccc12`, in series [1], the IC50 was 580 nM.

On to `O=C(Nc1n[nH]c2cc(-c3cc[nH]c3)ccc12)C1CC1`, for which the half-inhibitory concentration (IC50) in series [1] was more than 30000 nM. In the case of `Cc1[nH]nc(C2CC2)c1-c1ccc2c(NC(=O)C3CC3)n[nH]c2c1`, the IC50 in series [1] stood at 82 nM. As to `COC(=O)Nc1noc2cc(-c3c(C(C)O)n[nH]c3C)ccc12` (centres undefined), the IC50 in series [1] came to 1200 nM.

On to `CCc1n[nH]c(C)c1-c1ccc2c(NC(=O)OC)noc2c1`, for which, in series [1], the IC50 was 460 nM. For `O=C(Nc1n[nH]c2cc(-c3ccc4[nH]cnc4c3)ccc12)C1CC1`, the IC50 in series [1] is more than 3000 nM. Take `O=C1Cc2cc(-c3ccc4c(NC(=O)C5CC5)n[nH]c4c3)ccc2N1`: the IC50 in series [1] is more than 30000 nM. Same read-out and setting: with `COC(=O)Nc1noc2cc(-c3c(-c4cccnn4)n[nH]c3C)ccc12` the figure was 350 nM. In the case of `COC(=O)Nc1noc2cc(-c3c(C(C)(C)C)n[nH]c3C)ccc12`, the IC50 in series [1] is more than 10000 nM. As to `Cc1n[nH]c(C)c1-c1ccc2c(NC(=O)c3ccc(OCCN4CCCCC4)cc3)n[nH]c2c1`, the IC50 in series [1] was determined as 260 nM. Consider `O=C(Nc1n[nH]c2cc(-c3ccc(O)cc3)ccc12)c1ccc(OCCN2CCOCC2)cc1`, for which the Tmax in series [2] worked out at 1.5 h. Besides, in series [3], the Cmax is 320 ng/mL. This molecule also had an AUC in series [4] of 890 ng·h/mL. The remaining at 0.5 h, 1 µM in series [5] was found to be 76%. Further, in series [1], the IC50 came out at 130 nM. With `O=C(Nc1n[nH]c2cc(-c3ccc(O)cc3)ccc12)C1CC1`, in series [1], the IC50 was found to be 400 nM. On to `O=C(Nc1n[nH]c2cc(-c3ccncc3)ccc12)C1CC1`, for which the IC50 in series [1] was found to be 7200 nM.

As for `COC(=O)Nc1noc2cc(-c3c(C(=O)OC)n[nH]c3C)ccc12`, the IC50 in series [1] was determined as 2900 nM. Same read-out and setting: as for `O=C(Nc1n[nH]c2cc(-c3cnc4[nH]ccc4c3)ccc12)C1CC1`, the figure is 11000 nM; as for `COC(=O)Nc1noc2cc(-c3c(-c4cc(C)ccn4)n[nH]c3C)ccc12`, 2600 nM. On the same count and under the same terms, with `COC(=O)Nc1noc2cc(-c3c(-c4ccncn4)n[nH]c3C)ccc12` the figure was 2900 nM; with `Cc1noc(C)c1-c1ccc2c(NC(=O)C3CC3)n[nH]c2c1`, 1000 nM; with `Cc1[nH]nc(-c2ccccn2)c1-c1ccc2c(NC(=O)OCCF)noc2c1`, 47 nM. With `COC(=O)Nc1noc2cc(-c3c(C(C)C)n[nH]c3C)ccc12`, the concentration for half-maximal inhibition (IC50) in series [1] turned out to be 910 nM. As to `COC(=O)Nc1noc2cc(-c3c(-c4cccc(C(C)C)n4)n[nH]c3C)ccc12`, in series [1], the IC50 came out at 2600 nM. Regarding `COCc1n[nH]c(C)c1-c1ccc2c(NC(=O)OC)noc2c1`, the 50% inhibitory concentration (IC50) in series [1] came to 1100 nM. For the molecule `Cc1[nH]nc(C2CC2)c1-c1ccc2c(N)noc2c1`, the IC50 in series [1] turned out to be 1400 nM.

Take `COC(=O)Nc1noc2cc(-c3c(-c4cccc(OC)n4)n[nH]c3C)ccc12`: the IC50 in series [1] came out at 400 nM. The same measure, in the same setting: with `COCCOC(=O)Nc1noc2cc(-c3c(-c4ccccn4)n[nH]c3C)ccc12` the figure was 69 nM. As to `Cc1n[nH]c(C)c1-c1ccc2c(NC(=O)C3CC3)n[nH]c2c1`, the IC50 in series [1] turned out to be 330 nM. In the case of `COC(=O)Nc1noc2cc(-c3c(-c4ncccc4C)n[nH]c3C)ccc12`, in series [1], the IC50 was 4800 nM. With `Cc1[nH]nc(-c2ccccn2)c1-c1ccc2c(NC(=O)OC(C)C)noc2c1`, in series [1], the IC50 came to 160 nM.

(Values after ChEMBL document CHEMBL4052759, “Discovery of DS79182026: A potent orally active hepcidin production inhibitor” (Bioorg Med Chem Lett, 2017).)
